In the CATMoS acute toxicity set (Mansouri et al. 2021):

Experiment: GHS categories as the set defines them, by LD50: 1 up to 5, 2 up to 50, 3 up to 300, 4 up to 2000, 5 above 2000 mg/kg
Settings: rat; in vivo; po
Source text: […]The data set underlying the modeling effort for this project was initially compiled by NICEATM and U.S. EPA’s CCTE. Briefly, LD50 data were collected from rat acute oral systemic toxicity tests, including limit tests, ranges/confidence intervals, and discrete LD50 values. The full data set included 21,200 LD50 entries for 15,688 substances. […] Data were reviewed to ensure that LD50 values with obvious errors in the extracted data such as unit conversion errors (e.g., comma and decimal separator misplacements) were either fixed or removed. After this review, 16,209 LD50 values remained. Many of the chemicals represented had multiple LD50 entries, requiring that a single representative value per Chemical Abstracts Service Registry Number (CASRN) identifier be defined to facilitate modeling efforts. Based on ATWG feedback and to define the representative LD50 as a protective value while accounting for the distribution across multiple LD50s, the median of the lowest quartile was computed using only discrete LD50 values (omitting limit test data and range and confidence interval data). A detailed summary of the data compilation is available online on the NICEATM webpage dedicated to the collaborative modeling project (NTP 2020).
[…][…] For categorical designations, limit test and range/confidence interval LD50 data were integrated wherever possible. As such, the number of chemicals with end point values/calls varies across the modeling end points (Table 3) based on whether chemicals had representative LD50 values and/or other data. If a chemical had both, the representative value was used to determine categorical calls rather than limit test data. Some data were useable only for certain end points and categories depending on the thresholds. For example, ranges that spanned multiple hazard categories were considered only for the binary (very toxic/nontoxic) end points and omitted from rendering a determination for hazard category assignment.
[…]The final data set comprising 11,992 chemicals was split into training and evaluation sets […], respectively. This process was performed semirandomly by ordering chemicals based on the five end points (categorical and continuous LD50 values) and partitioning every fourth record into the evaluation set accordingly. This approach was taken to ensure an equivalent distribution of the LD50 values and the different hazard categories between the training and the evaluation sets without supervised sampling of the chemicals based on structures (Figure 1A). The sources of the chemical structures were also kept equivalent between the two sets, with chemical structures obtained from DSSTox, being the highest quality, representing over 75% of each set (Figure 1B).

Compound | GHS category
c1ccc2oc(C3(Cn4ccnc4)OCCO3)cc2c1 | 4
CCCCn1cc2c3c(cccc31)[C@@]1(OC)C[C@@H](COC(=O)c3cncc(Br)c3)CN(C)[C@@H]1C2 | 4
O=[N+]([O-])c1ccc(OP(=S)(Oc2ccc([N+](=O)[O-])cc2)Oc2ccc([N+](=O)[O-])cc2)cc1 | 5
Nc1ccc(NCCO)c([N+](=O)[O-])c1 | 4
COC(=O)C(C)(C)C(=O)OC1=C(C(=O)Nc2ccccn2)N(C)S(=O)(=O)c2cc(Cl)sc21 | 2
COCCNC(=O)c1ccnc(C(=O)NCCOC)c1 | 5
O=c1[nH]c(=O)[nH]c(=O)[nH]1 | 5
FC(F)(F)c1nc(NC2CC2)c2ncn(CC3CC3)c2n1 | 3
CC1CCCO1 (stereo unspecified) | 4
CCCCc1ccc2[nH]c(NC(=O)OC)nc2c1 | 2
CCC(O)=C1C(=O)CC(C(=O)O)CC1=O (stereo unspecified) | 5
Cc1ccccc1OP(Oc1ccccc1C)Oc1ccccc1C | 4
CCCCC(CC)C(=O)OOC(C)(C)C (stereo unspecified) | 5
CC1=CC1 | 5
O=C(O)C(O)C(O)C(O)C(O)C(O)CO (stereo unspecified) | 5
COc1cc2nc(N3CCN(C(=O)CC(C)O)CC3)nc(N)c2cc1OC (stereo unspecified) | 5
CC[n+]1c(C=Cc2ccc(N3CCCC3)cc2)cccc1C=Cc1ccc(N2CCCC2)cc1 | 5
O=C(Nc1cc(Cl)c(NC(=O)c2cc3ccccc3c(N=Nc3cc(Cl)ccc3Cl)c2O)cc1Cl)c1cc2ccccc2c(N=Nc2cc(Cl)ccc2Cl)c1O | 5
CC(C)(C)[C@H](NC(=O)OCc1ccccc1)C(=O)O | 4
CCO[Si](CCCOCC1CO1)(OCC)OCC (stereo unspecified) | 5
ClCC(Cl)C(Cl)(Cl)Cl (stereo unspecified) | 4

Compound | GHS category
O=C1NC(=O)C(c2ccc(O)cc2)(c2ccc(O)cc2)N1 | 5
CCCC(=O)OCCC(C)C | 5
CC(=O)OC1CC[C@H]2[C@@H]3CC[C@H]4CC(=O)C=C(C)[C@]4(C)[C@H]3CC[C@]12C (stereo partly specified) | 5
CC(=O)Nc1ccc(S(=O)(=O)O)c2cc(S(=O)(=O)O)c(/N=N/c3ccc(/N=N/c4ccc(S(=O)(=O)O)cc4)c4ccc(S(=O)(=O)O)cc34)c(O)c12 | 5
CCOC(=O)/C(Cl)=C/c1cc(N2C(=O)C3=C(CCCC3)C2=O)ccc1Cl | 5
COc1ccccc1NC(=O)c1cc2ccccc2cc1O | 5
CC1(C)O[C@@H]2C[C@H]3[C@@H]4C[C@H](F)C5=CC(=O)C=C[C@]5(C)[C@H]4[C@@H](O)C[C@]3(C)[C@]2(C(=O)CO)O1 | 1
CN[C@H](CC(N)=O)C(=O)NC(=O)[C@@H](N[C@@H]1C(=O)N2C1SC(C)(C)[C@@H]2C(=O)O)c1ccc(O)cc1 (stereo partly specified) | 5
CCCCCCCCCCCC(=O)OC1CC(C)(C)NC(C)(C)C1 | 5
Cc1ccc(Cl)cc1NC(=O)c1cc2ccccc2cc1O | 5
COC(=O)C1=C(C)NC(COC(N)=O)=C(C(=O)OC(C)C)C1c1cccc(Cl)c1Cl (stereo unspecified) | 5
CCCCn1c(C)c(C(=O)NC2CCN(CCc3ccccc3)CC2)c2cc(O)ccc21 | 5
CC(Oc1ccc(Oc2ncc(C(F)(F)F)cc2Cl)cc1)C(=O)O (stereo unspecified) | 4
CCCC(=O)c1ccc2c(c1)OC(C)(C)C(=O)N2 | 5
CC12CCC3c4ccc(OC(=O)c5ccccc5)cc4CCC3C1CCC2OC(=O)COC(=O)CCCc1ccc(N(CCCl)CCCl)cc1 (stereo unspecified) | 5
O=C(O)c1cc(Br)nn1-c1ncccc1Cl | 5
ICC1CCC(CI)CC1 (stereo unspecified) | 5
CCCCCCCCC(C)C(C)CCCCCCCC (stereo unspecified) | 5
CC[C@H]1OC(=O)C[C@@H](O)[C@H](C)[C@@H](O[C@@H]2O[C@H](C)[C@@H](O[C@H]3C[C@@](C)(O)[C@@H](O)[C@H](C)O3)[C@H](N(C)C)[C@H]2O)[C@@H](CC=O)C[C@@H](C)C(=O)C=CC(C)=C[C@@H]1CO[C@@H]1O[C@H](C)[C@@H](O)[C@@H](OC)[C@H]1OC | 5
O=[N+]([O-])c1ccc(Nc2ccccc2)cc1 | 5
CC(O)C(C)O (stereo unspecified) | 5

Compound | GHS category
COc1ccccc1C=NNC(N)=S | 5
CC(=O)CC(=O)Nc1cc(Cl)c(NC(=O)CC(C)=O)cc1C | 5
CCO[Si](CCCSSCCC[Si](OCC)(OCC)OCC)(OCC)OCC | 5
COc1ccc(C=Nc2ccccc2C(=O)O)cc1 | 4
CC(C)OC(=O)C=Cc1ccccc1 | 5
Cc1cccc(C)c1N=C(O)c1cccnc1O | 5
CCCCOC(=O)CC(O)C(=O)OCCCC (stereo unspecified) | 5
CCCNC(=O)c1cnc2cccc(C)n2c1=O | 3
CCCNC(=O)c1cnc2c(C)cccn2c1=O | 3
O=C(O)c1ccc2ccccc2c1 | 5
COc1ccc(C2NC(=O)C(C)S2)cc1 (stereo unspecified) | 5
CC(C)(c1ccc(OCC2CO2)cc1)c1ccc(OCC2CO2)cc1 (stereo unspecified) | 4
CCCc1nc(C)c2c(=O)nc(-c3cc(S(=O)(=O)O)ccc3OCC)[nH]n12 | 5
c1ccc(-c2nc3ccccc3o2)cc1 | 5
CNC(=O)C(=NNc1ccc(Cl)cc1[N+](=O)[O-])C(C)=O | 5
CN1C(=O)C(O)N=C(c2ccccc2Cl)c2cc(Cl)ccc21 (stereo unspecified) | 5
c1ccc(COc2ccc3ccccc3c2)cc1 | 5
COP(=O)(NC(=O)C(C)C)SC (stereo unspecified) | 4
CCOC(=O)C1(C)OC(=O)N(c2cc(Cl)cc(Cl)c2)C1=O (stereo unspecified) | 5
CC(C)=CCC/C(C)=C\COC(=O)C(C)C | 5
Nc1ccc(F)cc1-c1ccc(Cl)c(Cl)c1 | 5

Compound | GHS category
CCN(CCOC(C)OCC(C)C)c1ccc(N=Nc2ccccc2)cc1 (stereo unspecified) | 4
CCOC(=O)[C@H](CCc1ccccc1)N[C@H]1CS[C@H](c2cccs2)CN(CC(=O)O)C1=O | 5
Cc1nc2ccccc2c(=O)n1-c1ccccc1C#N | 4
CCCC(=O)C(C)=O | 5
CC(C)(C)c1ccc(O)c(C(C)(C)C)c1 | 5
Cc1ccc(C(N)=O)c(O)c1 | 5
CNC(=O)C(=NNc1cccc(Cl)c1)C(C)=O | 5
CCO[C@@H]1O[C@H](C(COCc2ccccc2)OCc2ccccc2)[C@H](OCc2ccccc2)[C@H]1O (stereo partly specified) | 5
COC(=O)c1ccc(C#N)cc1[N+](=O)[O-] | 5
CCC=CCCCCCCCC(=O)OC | 5
COC(Cn1cncn1)(OC)c1cc2ccccc2o1 | 4
O=S(=O)(O)c1ccc(/N=N/c2cc(CO)c(O)c(/N=N/c3ccc(S(=O)(=O)O)c4ccccc34)c2O)c2ccccc12 | 5
COC(=O)c1ccccc1S(=O)(=O)NC(=O)N(C)c1nc(C)nc(OC)n1 | 5
CC(=O)Nc1ccc(NC(=O)c2cc3ccccc3cc2O)cc1 | 5
Cc1ccc(C(=O)OCCCl)cc1N=Nc1c(O)c(C(=O)Nc2cc(C)c(NC(=O)c3cc4ccccc4c(N=Nc4cc(C(=O)OCCCl)ccc4C)c3O)cc2C)cc2ccccc12 | 5
O=C1CCCCCCCCCCCCCCO1 | 5
O=C1c2ccccc2C(=O)c2ccccc21 | 5
CCCCCCCCCCOC(C)=O | 5
